This experiment deals with T1, A11-reactive amyloid oligomers (Homo sapiens, UniProt P05067).
T1 construct: the amyloid-β 1-42 (Aβ42) peptide
Nature of the experiment: Dot blot assay with conformation-specific antibody A11. The class given is biochemical. Conditions: Aβ42 15 µM, 48 h at 37°C, 04 at 1:1 or 5:1 molar ratio. As to the method: Finally, we examined the effect of 04 on potentially toxic amyloid oligomers that are recognized by the conformation-specific antibody A11 (Kayed, 2003). Soluble Aβ42 peptides were incubated in the presence and absence of 04 for 48 h at 37°C and the resulting aggregate species were analyzed by dot blot assays.

Molecules are shown by their SMILES.

Experimental findings from patent EP2508186A1, “Phenoxazinones or phenothiazones as inhibitors of amyloid formation” (Max-Delbrück-Centrum für Molekulare Medizin, priority 2011, dated 2012) are described below.

T1 sequence (P05067 672-713 limits assumed): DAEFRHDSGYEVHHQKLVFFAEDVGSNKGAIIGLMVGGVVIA

On to `O=c1cc2oc3cc(O)c(-c4ccc(O)cc4O)cc3nc-2cc1-c1ccc(O)cc1O` [Compound 04, 2,8-bis-(2,4-dihydroxyphenyl)-7-hydroxy-phenoxazin-3-one], for which the A11-reactive oligomers result was “detected in the absence but not in the presence of the chemical compound”.
